Data on seven molecules can be found in ChEMBL document CHEMBL1127966, “Acyclic NK1 antagonists: Replacements for the benzhydryl group” (Bioorg Med Chem Lett, 1994).

For orientation: pIC50 means the negative decadic logarithm of the IC50, by convention in mol/L.

pIC50: −log10 of the molar value.

One assay concerns the target Substance-P receptor (Homo sapiens, UniProt P25103). Put plainly: Binding affinity of compound was determined from inhibition of [125I]- substance P binding to the hNK1 receptor in CHO cells. The format is cell-based.
For assay [1], the target named is T1, Substance-K receptor (Homo sapiens) (UniProt P21452).
T1 sequence (whole entry): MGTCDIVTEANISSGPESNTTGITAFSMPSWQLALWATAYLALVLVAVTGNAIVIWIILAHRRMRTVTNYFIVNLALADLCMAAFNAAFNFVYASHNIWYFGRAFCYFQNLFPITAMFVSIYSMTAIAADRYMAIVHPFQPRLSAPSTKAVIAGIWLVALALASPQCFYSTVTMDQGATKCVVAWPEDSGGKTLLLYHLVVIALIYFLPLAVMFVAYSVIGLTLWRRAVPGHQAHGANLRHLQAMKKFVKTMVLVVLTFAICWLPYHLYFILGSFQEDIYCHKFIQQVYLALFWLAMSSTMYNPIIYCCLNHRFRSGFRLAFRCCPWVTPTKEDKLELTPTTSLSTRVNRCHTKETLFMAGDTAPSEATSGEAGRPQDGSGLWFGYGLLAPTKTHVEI
Put plainly: Binding affinity to Tachykinin receptor 2.

Assay [2] deals with T2, Neuromedin-K receptor (Homo sapiens) (UniProt P29371).
T2 sequence (whole entry): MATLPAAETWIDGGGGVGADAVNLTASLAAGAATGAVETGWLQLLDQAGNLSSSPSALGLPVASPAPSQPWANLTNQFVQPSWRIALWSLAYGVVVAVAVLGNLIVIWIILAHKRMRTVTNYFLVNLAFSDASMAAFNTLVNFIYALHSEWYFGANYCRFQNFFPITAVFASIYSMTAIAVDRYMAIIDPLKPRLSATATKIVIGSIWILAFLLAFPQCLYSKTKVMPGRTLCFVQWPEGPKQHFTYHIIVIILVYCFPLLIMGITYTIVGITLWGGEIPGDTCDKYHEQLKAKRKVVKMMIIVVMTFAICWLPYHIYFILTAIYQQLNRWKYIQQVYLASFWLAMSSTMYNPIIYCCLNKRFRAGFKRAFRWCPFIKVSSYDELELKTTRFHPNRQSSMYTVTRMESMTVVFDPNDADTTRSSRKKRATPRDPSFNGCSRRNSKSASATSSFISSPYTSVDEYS
The assay is described as follows: Binding affinity to Tachykinin receptor 3.

Chain of Substance-P receptor (P25103 whole entry): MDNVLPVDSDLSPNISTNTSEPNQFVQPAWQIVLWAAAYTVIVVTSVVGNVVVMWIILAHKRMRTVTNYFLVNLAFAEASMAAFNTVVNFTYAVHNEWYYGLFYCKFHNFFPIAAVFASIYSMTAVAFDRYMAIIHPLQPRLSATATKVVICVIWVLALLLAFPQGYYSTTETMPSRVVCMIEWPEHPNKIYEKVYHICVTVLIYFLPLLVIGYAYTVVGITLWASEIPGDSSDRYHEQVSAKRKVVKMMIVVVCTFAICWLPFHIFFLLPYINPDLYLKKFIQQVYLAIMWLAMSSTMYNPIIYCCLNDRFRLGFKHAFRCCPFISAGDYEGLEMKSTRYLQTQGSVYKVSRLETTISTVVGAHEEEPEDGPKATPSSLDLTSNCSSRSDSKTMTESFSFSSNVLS

For the molecule `Cc1cc(C)cc(COCC(N)Cc2cccc3ccccc23)c1` (centres undefined), the pIC50 at Substance-P receptor is 5.94.

As for `Cc1cc(C)cc(COCC(N)C(c2ccccc2)c2ccccc2)c1` (centres undefined), at Substance-P receptor, the pIC50 is 8.03.

On to `Cc1cc(C)cc(COCC(N)C2c3ccccc3CCc3ccccc32)c1` (centres undefined), for which, on Substance-P receptor, the pIC50 was 7.03.

As to `Cc1cc(C)cc(COC[C@H](N)c2ccccc2)c1`, the pIC50 on Substance-P receptor was 5.60.

Regarding `Cc1cc(C)cc(COC[C@@H](N)c2ccccc2)c1`, the Affinity in assay [1] and in assay [2] was greater than 10 µM each time. This molecule showed a pIC50 on Substance-P receptor of 7.26.

Regarding `Cc1cc(C)cc(COCC(N)C2c3ccccc3C=Cc3ccccc32)c1` (centres undefined), at Substance-P receptor, the pIC50 is 7.10.

Regarding `Cc1cc(C)cc(COCC(N)Cc2ccccc2)c1` (centres undefined), the pIC50 at Substance-P receptor was 6.32.
